# Experimental data reported in ChEMBL document CHEMBL3507680, “University of Dundee, Gates Library screen for HepG2 cell viability”.
# Test: Human HepG2 cell viability assay in 384 well format
# Assay type: toxicity, cell-based
# Parameters: dose 125 nL, time 70.5 hour; concentration not given beside the values
# Settings: HepG2 cells, read-out: Inhibition
row,SMILES,cytotoxicity at 70.5 h [%]
1,CC(C)c1ncc2c(n1)CN(Cc1cccc(C(N)=O)c1)CC2,-4.48
2,CC(C)Oc1ncccc1CNC(=O)N1CCC(n2cccc2)CC1,-0.649
3,Cc1nc(C2CCCN2C(=O)c2cc3c(s2)CCC3)no1 (configuration not stated),-6.34
4,CCN(CC)Cc1ccc(C(=O)N2CCN(CC(C)O)CC2)o1 (configuration not stated),-5.77
5,Cc1cc(CN(C)C(=O)c2ccc(Cl)c(N3CCCC3=O)c2)no1,28.1
6,CN(CC(=O)N1CCCC1c1cnn(C)c1)Cc1ccccc1 (configuration not stated),-11.9
7,CC(Cn1cccn1)NCc1ccc(Cl)s1 (configuration not stated),-4.9
8,Cc1ccc(S(=O)(=O)Nc2ccc(=O)n(C)c2)c(Br)c1,21.8
9,COc1ccc2c(c1)CCN2Cc1nc2c(cnn2C)c(=O)[nH]1,-9.79
10,CC(Cn1ccnc1)NC(=O)C1(c2ccccc2)CC1 (configuration not stated),-10.4
11,NC(=O)c1ccc(CNC(=O)Nc2cn[nH]c2)cc1,16
12,Cc1cccc(C2(C(=O)NC(C)Cn3ccnc3)CC2)c1 (configuration not stated),-8.86
13,CC(Cn1ccnc1)NC(=O)C1(c2cccc(Cl)c2)CC1 (configuration not stated),-1.52
14,CNS(=O)(=O)Cc1cccc(CNC(=O)Nc2cn[nH]c2)c1,-4.03
15,COC(=O)c1ccc(N2CCN(C(=O)c3ccco3)C(C)C2)cc1 (configuration not stated),-3.57
16,CC(NC(=O)N1CCC(n2cncn2)CC1)c1ccc(F)cc1 (configuration not stated),-6.99
17,Cn1cc(C2CCCN2C(=O)CCCOc2ccccc2F)cn1 (configuration not stated),-2.53
18,Cc1nc2n(n1)CC(NCC(=O)Nc1cc(C)on1)CC2 (configuration not stated),-6.78
19,COc1ccc(C2CCCN2Cc2nc3c(cnn3C)c(=O)[nH]2)cc1 (configuration not stated),-8.35
20,CCc1cnc(CN(C)C2CCN(CC(=O)Nc3nccs3)C2)o1 (configuration not stated),23
21,Cc1noc(CCCC(=O)N2CCCC2c2ccsc2)n1 (configuration not stated),-8.85
22,Cn1ccnc1CN1CCCN(Cc2noc(C3CC3)n2)CC1,-1.01
23,O=C(Nc1ccncc1)C1=NN(c2ccccc2)C(=O)CN1,-16.1
24,O=C(Nc1ccccc1F)C1=NN(c2ccccc2)C(=O)CN1,-4.94

row,SMILES,cytotoxicity at 70.5 h [%]
1,CCCc1noc(CCC(=O)N2CCCC2c2cccc(OC)c2)n1 (configuration not stated),-8.65
2,O=C(CCc1nc(-c2ccccn2)no1)N1CCCC1c1ccsc1 (configuration not stated),-10.3
3,Cc1ccccc1OCC(O)CN1CCC(c2ccn[nH]2)CC1 (configuration not stated),-4.42
4,COc1ccc(COCC(O)CN2CCC(c3ccn[nH]3)CC2)cc1 (configuration not stated),-8.27
5,CCc1nnc2n1CCN(C(=O)c1nc(-c3ccco3)sc1C)C2,-6
6,c1ncn(CC2CCCN(Cc3nc(-c4ccoc4)no3)C2)n1 (configuration not stated),-10.5
7,Cc1nn(C)c(C)c1C1CCCN1Cc1ccc(C(N)=O)cc1 (configuration not stated),-10.3
8,Cc1cnn(CCNCC(O)COc2ccc(F)cc2)c1 (configuration not stated),-10.4
9,CCc1noc(CN2CCN(C(=O)COC)CC2)n1,6.94
10,Cc1cnn(CC2CCCN2C(=O)CN(C)C2CC2)c1 (configuration not stated),-11.8
11,CCN(CC)CC(=O)N1CCCC1Cn1cccn1 (configuration not stated),-4.89
12,Cc1nn(C)c(C)c1C1CCCN1Cc1cccc(OCC(N)=O)c1 (configuration not stated),-7.47
13,COc1c(C2CCCN2C(=O)c2c(C)noc2C(C)C)c(C)nn1C (configuration not stated),-4.7
14,Cn1ccnc1CC1CCCN(Cc2noc(C3CC3)n2)C1 (configuration not stated),-9.18
15,CCOC(=O)c1ccc(S(=O)(=O)NCc2cccnc2N(C)C)cc1,34.2
16,COc1c(C)cnc(CN2CCCC(Cn3nc(C)nc3C)C2)c1C (configuration not stated),-3.59
17,c1ncn(CC2CN(Cc3ccc4c(c3)OCCO4)CCO2)n1 (configuration not stated),-0.441
18,CCN(Cc1ccccc1)C(=O)CN1CCOC(Cn2cncn2)C1 (configuration not stated),5.38
19,CS(=O)(=O)NCCCN1CCCC1c1ccsc1 (configuration not stated),-9.71
20,Cc1cnn(CC(=O)N2CCCN(c3nc(C)cs3)CC2)c1,0.581
21,O=C(CN1CCCCC1Cn1cncn1)NCCc1ccsc1 (configuration not stated),9.35
22,CCC(C)NC(=O)CS(=O)(=O)Cc1cc(Cl)c2c(c1)OCCCO2 (configuration not stated),-5.29
23,NC(=O)CS(=O)(=O)Cc1cc(Cl)c2c(c1)OCCCO2,13.8
24,COc1ccc(S(=O)(=O)NCc2cccnc2N(C)C)cc1,-5

row,SMILES,cytotoxicity at 70.5 h [%]
1,CNC(=O)CS(=O)(=O)Cc1cc(Cl)c2c(c1)OCCO2,-4.61
2,CN(Cc1ccsc1)C(=O)Nc1ccc(N2CCCC2)nc1,0.563
3,O=C(CN1CCC(c2ccnn2CCO)CC1)NCc1ccco1,11.2
4,CNC(=O)c1ccc(S(=O)(=O)NCc2cccnc2N(C)C)cc1,-6.39
5,Cc1csc(N2CCN(C(=O)CCn3cccn3)CC2)n1,3.65
6,Cc1cnn(CCC(=O)N2CCN(c3nccs3)CC2)c1,17.7
7,Cc1nnc(NC(=O)NCc2ccc(N3CCN(C)CC3)nc2)s1,-24.8
8,Cc1cccc(N2CCN(CCNC(=O)C(C)n3cncn3)CC2)c1 (configuration not stated),-6.98
9,Cc1nnc(NC(=O)NCc2cc(F)cc(F)c2)s1,-14.2
10,Cc1ccc(C)n1-c1ccc(C(=O)NCCNc2ncccn2)cc1,-7.02
11,O=C(Cc1ccc2c(c1)CCC2)NCCNc1ncccn1,10.9
12,COc1ccc(C)cc1CN(C)Cc1nc2c(cnn2C)c(=O)[nH]1,-7.21
13,Cc1cc(C)c(CNC(=O)N(C)Cc2sccc2C)c(=O)[nH]1,-10.7
14,CCOc1cccc(C(=O)N2CCN(c3nccc(OC)n3)CC2)c1,23.4
15,CCOc1ccnc(N2CCN(C(=O)C(C)(C)C#N)CC2)n1,-12.5
16,CCN(Cc1ccccc1)C(=O)CN1CCCC(Cn2cncn2)C1 (configuration not stated),-4.31
17,CC(C)c1nnc2n1CCN(CC(=O)Nc1sccc1C#N)C2,13.5
18,Cc1nc(CN(C)C2CCN(Cc3nc4ccccc4s3)C2)no1 (configuration not stated),-8.96
19,CCCOCC(=O)NS(=O)(=O)c1ccc2c(c1)OCCCO2,19.6
20,COCCCC(=O)NS(=O)(=O)c1ccc2c(c1)OCCCO2,-8.6
21,CN(Cc1ccc2c(c1)OCO2)Cc1nc2c(cnn2C)c(=O)[nH]1,1.92
22,CCc1ncncc1C(=O)N1CCCN(Cc2ccc(C)cc2)CC1,20.1
23,Cc1cnn(CCNCC(=O)NCc2ccccc2)c1,-12.3
24,Cc1nc(CN(C)C2CCN(Cc3sc(C)nc3C)C2)no1 (configuration not stated),-7.02

row,SMILES,cytotoxicity at 70.5 h [%]
1,CN(Cc1ccco1)C(=O)CN1CCCC(Cn2cncn2)C1 (configuration not stated),-8.21
2,Cc1nn(C)c(C)c1C1CCCN1C(=O)CCCn1cccn1 (configuration not stated),-14.1
3,Cc1nc(CN2CCCN(CCOc3cccc(C#N)c3)CC2)no1,38.4
4,c1ccc(Cn2cc(CNCC3CCCN3c3cccnn3)cn2)cc1 (configuration not stated),3.57
5,Cc1nc(C)n(CC2CN(Cc3cccnc3)CCO2)n1 (configuration not stated),-3.76
6,Cc1nc(C)n(CC2CN(Cc3cccc4c3OCCO4)CCO2)n1 (configuration not stated),1.12
7,Cc1cc(CN2CCCC2c2c(C)nn(C)c2Cl)no1 (configuration not stated),4.73
8,O=C(NCCc1ccsc1)Nc1cccnc1N1CCCC1,3.02
9,O=C(CCNC(=O)C1CCCC1)NCc1cccnc1-n1cncn1,-9.48
10,Cc1noc(NC(=O)c2ccc(OC(F)(F)F)cc2)n1,55.7
11,Cc1noc(NC(=O)c2ccc(Br)cc2)n1,48.3
12,Cc1nc(-c2ccccc2)sc1C(=O)NCCNc1ncccn1,1.41
13,Cc1nccn1-c1cc(CNC(=O)CCNC(=O)C2CCCC2)ccn1,2.73
14,Cc1ncsc1C(=O)NC1CCN(CC(=O)N(C)C(C)(C)C#N)CC1,28.1
15,CCN(Cc1ccco1)C(=O)Nc1cc(C(F)(F)F)c[nH]c1=O,11.4
16,OCCn1nccc1C1CCN(CCCOc2ccc(F)cc2)CC1,-1.62
17,Cc1cc(C)c(CNC(=O)NCC(c2ccccc2)N(C)C)c(=O)[nH]1 (configuration not stated),7.25
18,O=C(c1ccc(N2CCCC2)nn1)N1CCCC(n2cccn2)C1 (configuration not stated),-1.11
19,Cc1cc(C)n(CC2CN(CCOc3cccc(F)c3)CCO2)n1 (configuration not stated),1.51
20,O=C(NCC1CC1)N1CCN(Cc2ccc3c(c2)OCCO3)CC1,2.86
21,Cc1cnn(CC2CCCN2C(=O)c2cc(C)no2)c1 (configuration not stated),25.6
22,CN(C)CC1CN(CCOc2cccc(C#N)c2)CCO1 (configuration not stated),0.102
23,CCc1ncc2c(n1)CN(CC(=O)NCCOc1ccccc1)CC2,-5.27
24,c1ccc(-n2ncc(CNCC3CCCN3c3cccnn3)n2)cc1 (configuration not stated),5.2

row,SMILES,cytotoxicity at 70.5 h [%]
1,O=C1COc2cc(C(=O)NS(=O)(=O)c3ccccc3F)ccc2N1,21.7
2,CC(NC(=O)CSCC(=O)Nc1ccccc1)c1ccccc1 (configuration not stated),-1.19
3,CCN(CC1CCOC1)C(=O)c1ccccc1N1CCOCC1 (configuration not stated),18.7
4,CC(C(=O)N1CCCN(c2ncccc2C#N)CC1)n1ccnc1 (configuration not stated),21.6
5,CC(C)CN(C)c1ccc(C(=O)N2CCCC2c2cnn(C)c2)cn1 (configuration not stated),21.8
6,CSc1nccn1-c1cccc(C(=O)NCCCN2CCOCC2)c1,1.7
7,Cc1nc2ccnn2c(C)c1CCC(=O)N1CCN(C2CC2)CC1,15.8
8,COc1ccnc(N2CCN(C(=O)CN3CCCC3=O)CC2)n1,0.556
9,COC(=O)c1ccc(N2CCN(CCC(=O)NC(N)=O)C(C)C2)cc1 (configuration not stated),-6.28
10,Cc1noc(Cl)c1CC(=O)N1CCCC(n2cccn2)C1 (configuration not stated),-4.55
11,Cn1ccnc1CN1CCN(Cc2ccccc2C#N)CC1,6.78
12,Cc1nccn1C1CCCN(C(=O)c2ccc3c(c2)nnn3C)C1 (configuration not stated),-6.07
13,CCOCC(O)CN1CCN(C(=O)c2cnc3n[nH]c(C)c3c2)CC1 (configuration not stated),-2.39
14,CSc1nccn1-c1cccc(C(=O)NCc2nnc(C)n2C)c1,6.07
15,Cc1noc(C)c1CN1CCc2nn(C(C)C)c(=O)cc2C1,38.6
16,Cc1nc2ccnn2c(C)c1CCC(=O)N1CCC(C(N)=O)CC1,2.4
17,Cc1cnc2c(S(=O)(=O)NCC3CCN(C4CC4)C3)cccc2c1 (configuration not stated),-5.3
18,CCN(CC)CCNC(=O)c1cnc(C(C)(C)C)s1,-6.77
19,CCc1ncc2c(n1)CN(Cc1nc(-c3ccsc3)no1)CC2,-6.7
20,Cc1nn(C)c(C)c1CC(=O)N1CCCC(n2ccnc2)C1 (configuration not stated),-3.37
21,COc1ccc(CC(=O)N2CCCC2Cn2cccn2)cc1F (configuration not stated),-9.94
